What follows are molecules tested on P388 murine leukemia cells (assay: Cytotoxicity against P388 murine leukemia cells (MTT assay)). Details: Mus musculus, P388, P388 cells 2.5x10³ per well, sample added after 24 hours, cultivated 3 days at 37°C, 5% CO₂, absorption at 540 nm, read-out: IC₅₀.
Type: cell-based
Experimental: P388 murine leukemia cells were spread over a 96-well microplate, 2.5x10³ cells per well. A sample to be tested was added after 24 hours. Cells were cultivated under the conditions of 5% CO₂ at 37°C for 3 days. 3-(4,5-Dimethylthiazol-2-yl)-2,5-diphenyl-2H-tetrazolium bromide (MTT) was added 4 hours after the addition of the sample. Upon the addition of 200 µl/ml of isopropyl alcohol containing 0.04 N HCl the absorption at 540 nm was measured to determine IC₅₀.
With `CC[C@@]1(O)C(=O)OCc2c1cc1n(c2=O)Cc2c-1nc1ccc(OC)c3c1c2CCC3N.Cl` (single isomer, unassigned) [Example 7 (Isomer A)] the IC50 was 0.0114 µg/mL.

Same assay, conditions: P388 cells 2.5x10³ per well, sample added after 24 hours, cultivated 3 days at 37°C, 5% CO₂, absorption at 540 nm, hydrochloride
`CC[C@@]1(O)C(=O)OCc2c1cc1n(c2=O)Cc2c-1nc1cccc3c1c2C(N)CC3.Cl` (single isomer, unassigned) [Example 2 (Isomer A)] showed an IC₅₀ of 3.38 ng/mL.
Work on `CC[C@@]1(O)C(=O)OCc2c1cc1n(c2=O)Cc2c-1nc1cccc3c1c2C(N)CC3.Cl` (single isomer, unassigned) [Example 2 (Isomer B)] yielded an IC₅₀ of 12.40 ng/mL.
With `CC[C@@]1(O)C(=O)OCc2c1cc1n(c2=O)Cc2c-1nc1ccc(OC)c3c1c2C(N)CC3.Cl` (single isomer, unassigned) [Example 4 (Isomer A)] the IC₅₀ was 9.21 ng/mL.
`CC[C@@]1(O)C(=O)OCc2c1cc1n(c2=O)Cc2c-1nc1ccc(OC)c3c1c2C(N)CC3.Cl` (single isomer, unassigned) [Example 4 (Isomer B)] was tested, and the IC₅₀ was 27.80 ng/mL.
In the case of `CC[C@@]1(O)C(=O)OCc2c1cc1n(c2=O)Cc2c-1nc1ccc(OC)c3c1c2CCC3N.Cl` (single isomer, unassigned) [Example 7 (Isomer B)], the IC₅₀ is reported as 11.90 ng/mL.

— patent EP0495432A1, “Hexa-cyclic compound” (DAIICHI PHARMACEUTICAL CO., LTD., priority 1991, dated 1992)
